Publication PMC10610885, “Discovery of an Insect Neuroactive Helix Ring Peptide from Ant Venom” (Toxins, 2023)
Like-named read-outs stand apart in the source and are kept apart here.

How the values were obtained:
[1] = test system: S2 Drosophila embryonic cell line; test: LDH cytotoxicity assay; format: cell-based; conditions: S2 cells, 5 and 50 µM, 1 h and 24 h of incubation
Experimental: (§1) The embryonic S2 Drosophila cell line (Thermofisher, Waltham, MA, USA) was maintained in Schneider’s insect medium (Sigma-Aldrich, Saint Louis, MO, USA) complemented with 10% heat-inactivated fetal bovine serum (FBS) (Sigma-Aldrich) and 1% Penicillin/Streptomycin (Sigma-Aldrich) at 25 °C without CO2 on TC-treated support (Corning®, Glendale, AZ, USA). The FBS was heat inactivated at 60 °C for 45 min. The cells were passaged every two days at about 90% confluence.
(§2) The CCK-8 (BosterBio, Pleasanton, CA, USA) and LDH (Dojindo, Rockville, MD, USA) assay kits were used to assess the cellular viability and mortality, with densities of 2 × 10^5 cells/mL and 6 × 10^5 cells/mL, respectively. Briefly, 100 µL of S2 cells at the appropriate densities were seeded in 96-well TC-treated plates and incubated for 24 h at 25 °C. […] Lysis Buffer, Triton 0.1%, and culture medium were used for controls. Viability and mortality cell assays were realized separately and in triplicates according to manufacturer’s instructions. The absorbances were measured using a BioTek Cytation 1 microplate reader (Agilent, Santa Clara, CA, USA) (i.e., 450 nm and 490 nm for CCK-8 and LDH assays, respectively). The percentages of living or dead cells were then calculated according to manufacturer’s recommendations.

L. caesar = test: Ingestion assay on blowflies; format: in vivo, Lucilia caesar
Experimental: (§3) We used the same protocol used in Guo et al. for the ingestion assays with flies (L. caesar and D. melanogaster). Briefly, flies were placed in 2 mL microcentrifuge tubes right after hatching and were individually fed with 3 µL of 50% w/v sucrose solution (negative control) or sucrose solution containing the toxin. They were then kept at 25 °C. Mortality was recorded at 1, 2, 4, 24, 48, and 72 h after exposure to the tested compound. The surviving flies received 3 µL of 50% w/v sucrose solution without peptide each day until the end of the experiment. For each test, ten flies were used per treatment and each of them was replicated three times.

D. melanogaster = test: Ingestion assay on Drosophila; format: in vivo; conditions: fed at high doses in 50% sucrose (Figure S2)
Experimental: as §3

blowfly Lucilia caesar [2] = test: Blowfly paralytic assay, intrathoracic injection; format: in vivo; conditions: L. caesar; for PD50 [1 h]: 1 h post injection, mean ± SEM, n = 3, ten flies per dose
Experimental: (§4) In this study, we screened the neurotoxic activity of U11 when injected into a panel of beneficial and pest insects such as honeybees, blowflies, and aphids. Blowfly is a dipteran model commonly used to evaluate the insecticidal potency of venom peptides. Blowfly maggots (Lucilia caesar) were bought from a fisheries shop (Euroloisir81, Lescure-d’Albigeois, France) and were kept at 25 °C until hatching. Flies 1–4 days post hatching were used for the injection assays. Honeybee (Apis mellifera) is a model of choice to assess the impact of a toxin against beneficial insects such as pollinators. The honeybee colonies used in this study belong to the Buckfast breed and were maintained at the University Champollion campus in Albi. Adult foraging honeybees were individually isolated in plastic vials and immediately injected. Assays on blowflies and honeybees were conducted by lateral intrathoracic injection of peptides dissolved in ultra-pure water at several concentrations (from 0.005 to 0.52 mM for L. caesar and from 0.002 to 1 mM for A. mellifera) by using a 1.0 mL Hamilton Syringe (1000 Series Gastight, Hamilton Company, Reno, NV, USA) with a fixed 25 gauge needle attached to an Arnold hand microapplicator (Burkard Manufacturing Co., Ltd., Rickmansworth, UK). Each fly/bee received 1 µL of peptide solution and was individually housed in a 2 mL tube with 3 µL of 5% glucose solution. Paralytic activity was monitored at 1 h and 24 h after injection while lethality was monitored only at 24 h. […] Ten flies/honeybees were used for each toxicity experiment and for the appropriate control (ultrapure water solution), and the experiment was repeated three times for each dose. Dose–response data were analyzed as detailed by Touchard et al.. The pea aphids A. pisum used in this study were obtained from a long-established parthenogenetic clone (LL01). Aphids were kept on young broad bean plants (Vicia faba, L. cv. Aquadulce) at 21 °C with a photoperiod of 16 h light 8 h dark, allowing us to maintain them as strictly parthenogenetic matrilines. To produce synchronized apterous nymphs, winged adults were allowed to reproduce on seedlings for 24 h. The resulting synchronized nymphs were reared for 9 days on plants before the beginning of the experiments (peptide injection or feeding). For the injection experiment, we used four groups of synchronized A9 aphids (30 per group): (i) non-injected aphids, (ii) aphids injected with sterilized ultra-pure water (injection control), (iii) aphids injected with PA1b inactivated peptide (non-toxic peptide injection control), and (iv) aphids injected with the U11 peptide. […] Aphids were monitored daily for 7 days after injection and their survival and behavior regularly checked, following the protocol developed by Ribeiro Lopes et al.. […]

[3] = test system: S2 Drosophila embryonic cell line; test: CCK-8 cytotoxicity assay; format: cell-based
Experimental: as §1, §2

Sitophilus oryzae = test: Weevil toxicity test by ingestion; format: in vivo; conditions: S. oryzae, 800 μg/g of feed, two weeks
Experimental: S. oryzae toxicity tests were performed with the WAA42 strain as described previously. Briefly, the insects used for the bioassays were adults 2 to 3 weeks of age collected in one week experimental cohorts and placed in batches of 30 individuals on feed pellets containing the synthetic U11 tested in a whole grain-based diet. The tested concentration of the U11 was 800 μg/g of the feed. Bioactivity was assessed by daily insect survival during the first two weeks of contact with the test diet (27.5 °C, 70% room humidity) and by standard survival analysis.

A. mellifera = test: Ingestion assay on honeybees; format: in vivo, Apis mellifera; conditions: force fed 5 µL sucrose solution with 8 mg/mL (110 nmol/g bee)
Experimental: The ingestion assays on honeybees were conducted by placing bees in 850 mL plastic storage boxes with 2 mL microcentrifuge tubes filled with 50% w/v sucrose solution and previously drilled for bee access. The boxes were kept at 25 °C in the dark and the bees were allowed to feed ad libitum on the sucrose solution. For each test, ten bees were used per treatment, and each of them was replicated three times. Lethality was recorded at 1, 2, 4, 24, and 48 h after exposure to U11 peptide.
For oral toxicity assays, insects were starved for 2 h prior testing. Bees were individually force fed with 5 µL of 50% w/v sucrose solution (negative control), or sucrose solution containing the toxin (8 mg/mL–110 nmol/g bee).

[4] = test system: honeybees (Apis mellifera); test: Honeybee paralytic assay, intrathoracic injection; format: in vivo; conditions: A. mellifera, n = 3
Experimental: In this study, we screened the neurotoxic activity of U11 when injected into a panel of beneficial and pest insects such as honeybees, blowflies, and aphids. Blowfly is a dipteran model commonly used to evaluate the insecticidal potency of venom peptides. Blowfly maggots (Lucilia caesar) were bought from a fisheries shop (Euroloisir81, Lescure-d’Albigeois, France) and were kept at 25 °C until hatching. Flies 1–4 days post hatching were used for the injection assays. Honeybee (Apis mellifera) is a model of choice to assess the impact of a toxin against beneficial insects such as pollinators. The honeybee colonies used in this study belong to the Buckfast breed and were maintained at the University Champollion campus in Albi. Adult foraging honeybees were individually isolated in plastic vials and immediately injected. […] Paralytic activity was monitored at 1 h and 24 h after injection while lethality was monitored only at 24 h. […] Dose–response data were analyzed as detailed by Touchard et al.. […] Aphids were monitored daily for 7 days after injection and their survival and behavior regularly checked, following the protocol developed by Ribeiro Lopes et al.. […]

S2 cells [5] = test: Membrane potential recorded by DiBAC4(3); format: cell-based, Drosophila; conditions: 10 µM, KCl 50 mM
Experimental: as §1
Variations of membrane potential were assessed using the fluorescent dye bis-(1,3-dibutybarbituric acid) (DiBAC4(3)) (Thermofisher) using a IX73 fluorescence microscope (Olympus, Japan). Then, 6 × 10^5 S2 cells were plated on 0.01% Poly-L-Lysine (Sigma-Aldrich) coated glass-bottom Petri dishes and allowed to adhere for 24 h before experiments. […] Baseline was recorded for 1 min before addition of KCl (50 Mm final) to achieve membrane depolarization. The results are presented as transformed data to obtain the relative fluorescence to the time of addition of the stimulus, according to the equation: Fx = Ft/F0, where Ft represents the fluorescent value at a specific time point and F0 represents the mean basal fluorescent value. To compare the different conditions, areas under the curve (AUC) after KCl addition were calculated (between 60 and 300 s).

[6] = test system: aphids (Acyrthosiphon pisum); test: Aphid intra-abdominal injection assay; format: in vivo; conditions: A. pisum
Experimental: as §4, with “(LL01).” for “(LL01). Aphids were kept on young broad bean plants (Vicia faba, L. cv. Aquadulce) at 21 °C with a photoperiod of 16 h light 8 h dark, allowing us to maintain them as strictly parthenogenetic matrilines. To produce synchronized apterous nymphs, winged adults were allowed to reproduce on seedlings for 24 h. The resulting synchronized nymphs were reared for 9 days on plants before the beginning of the experiments (peptide injection or feeding). For the injection experiment, we used four groups of synchronized A9 aphids (30 per group): (i) non-injected aphids, (ii) aphids injected with sterilized ultra-pure water (injection control), (iii) aphids injected with PA1b inactivated peptide (non-toxic peptide injection control), and (iv) aphids injected with the U11 peptide.”

A. pisum = test: Feeding experiment on aphids; format: in vivo, Acyrthosiphon pisum; conditions: artificial diet with 500 μg/mL and 1 mg/mL, seven days
Experimental: For the feeding experiments on aphids, one-day-old aphids (corresponding to the first-instar nymphs N1) were placed for seven days in feeding chambers on 48 μL of a nutritive artificial diet specifically developed for A. pisum feeding, and development was completed with or without the peptide U11. The diets were changed after three days to avoid contamination. Ten N1 were deposited in the feeding chamber and three replicates were performed for each bioassay. Aphids’ mortality was assessed every day and compared between the different diets using a GLM linear regression model after observation of the residuals with a significance level of 5% on the R Studio software. Survival of aphids on two diets, completed, respectively, with U11 at 500 μg/mL and 1 mg/mL, was followed during seven days.

S2 cells [7] = test: Intracellular Ca2+ mobilization, Fluo-4/AM probe; format: cell-based, Drosophila; conditions: 10 µM, 1 h preincubation, thapsigargin 2 µM then CaCl2 1.8 mM
Experimental: as §1
The [Ca^2+]i mobilization was measured with the Fluo-4/AM probe using the imaging reader Cytation 1 (BioTek, Agilent). Then, 6 × 10^5 S2 cells/mL were plated on glass-bottom Petri dishes and allowed to adhere for 24 h before experiments. Cells are incubated with 2 µM of Fluo-4/AM in cell culture medium with 2.5 mM probenecid for 1 h at 25 °C with 10 µM of U11 peptide. Then, cells were rinsed twice in Ca^2+-free buffer containing (in mM) 120 NaCl, 5 KCl, 4 MgCl2, 32.2 Sucrose, 10 HEPES, 0.1 EGTA, 2.5 probenecide (pH 7.2), incubated in Ca^2+-free buffer, and processed for measurement of cytoplasmic Ca^2+ concentration. […] Cell fluorescence was analyzed with CALIMA [59] […] Changes in the Ca^2+ cytosolic concentration were calculated from changes of fluorescence relative to time 0 (F = Ft/Ft0 (fluorescence at time = t/time = 0)).

[8] = cited from earlier work
Experimental: Table 2 Neuroactivity of ant venom peptides on blowfly species (Lucilia spp.) ranked by PD50 values 1 h post injection. | column: Cytotoxicity

blowfly Lucilia caesar [9] = conditions: L. caesar, 1 h post injection; cited from earlier work
Experimental: Table 2 Neuroactivity of ant venom peptides on blowfly species (Lucilia spp.) ranked by PD50 values 1 h post injection. | column: PD50 [1 h] *

U11-MYRTX-Tb1a
cytotoxicity, LDH assay [1]: not cytotoxic
toxicity by ingestion (L. caesar; fed at high doses in 50% sucrose (Figure S2)): active by ingestion
blowflies affected 24 h post ingestion (L. caesar; ingestion, 8 mg/mL (350 nmol. g^−1), 24 h): 60%
toxicity by ingestion (D. melanogaster): active by ingestion
paralysis of flies 1 h after injection (screen) (blowfly Lucilia caesar [2]; intrathoracic injection of one high dose per peptide (Table 1: U8 54, U10 28, U11 27, U13 45 nmol. g^−1), 1 h, ten flies per replicate, three replicates): paralysis of all flies
PD50 [1 h] (blowfly Lucilia caesar [2]; intrathoracic injection): 1.78 ± 0.12 nmol/g
PD50 [1 h] (blowfly Lucilia caesar [2]; intrathoracic injection, listed as U11-Tb1a): 1.8 ± 0.1 nmol/g
PD50 24 h post injection (blowfly Lucilia caesar [2]; intrathoracic injection, 24 h post injection, n = 3): 2.67 ± 0.13 nmol/g
cytotoxicity, CCK-8 assay ([3]; S2 cells, 5 and 50 µM, 1 h and 24 h of incubation): not cytotoxic
Cytotoxicity ([3]; Table 2, this study: CCK-8 and LDH assays on S2 cells): No
toxicity by ingestion (Sitophilus oryzae): unaffected
toxicity by ingestion (A. mellifera): unaffected
PD50 1 h post injection ([4]; 1 h post injection): 1.36 ± 0.08 nmol/g
PD50 24 h post injection ([4]; 24 h post injection): 1.11 ± 0.09 nmol/g
depolarization-induced increase in fluorescence intensity, less than in the control condition (S2 cells [5]; 30 min, DiBAC4(3), NMDG buffer): 33%
AUC of relative fluorescence after KCl application (S2 cells [5]; 60-300 s, mean ± SEM of n = 220 cells (n = 3), control 464 ± 35): 312 ± 23
effect on aphid fitness ([6]; injection 3.4 nmol. g^−1, monitored over 7 days (Figure S1)): weak effect
aphids affected 24 h post injection ([6]; intra-abdominal injection, 3.4 nmol. g^−1 (46 nL of 0.25 mM), 24 h): 6.6%
paralytic effect on aphids by injection ([6]; intra-abdominal injection, 3.4 nmol. g^−1, 24 h): weak paralytic effect
toxicity by ingestion (A. pisum): unaffected
calcium mobilization (Tg response and calcium influx) (S2 cells [7]): No effect

bicarinalin [M-Tb1a]
Cytotoxicity [8]: Yes
PD50 [1 h] (blowfly Lucilia caesar [9]): 12.0 ± 1.0 nmol/g
